Where “and” joins values, the source holds several entries; their conditions need not be identical. Identical values can stand only once. Like-named read-outs stand apart in the source and are kept apart here.
Assays:
[1] = system: topoisomerase II; details: cited from earlier work
[2] = system: HIV-1; details: human macrophages, cited from earlier work
[3] = system: 8E5 cells; details: HIV gene expression, low GSH-peroxidase activity; cited from earlier work
[4] = system: herpes viruses; details: cell culture, extracellular glutathione; cited from earlier work
[5] = system: guinea pigs; details: ascorbate deficient guinea pigs, 3.75 mmol/kg daily (1,152 mg/kg daily) in three divided doses; cited from earlier work
[6] = human, in vivo, iv
Text: The kinetics and the effect of glutathione on plasma and urine sulfhydryls were studied in ten healthy human volunteers.

[7] = system: human IL-4 production; details: stimulated peripheral blood T cells, Th0- and Th2-like T cell clones; cited from earlier work
[8] = system: RPE cells; details: GSH supplemented in the medium; cited from earlier work
[9] = system: HIV-1; details: cited from earlier work; for persistence of anti-HIV-1 effect in culture: single pulse exposure, monocyte/macrophages in vitro
[10] = system: high-affinity component of mitochondrial glutathione transport; details: stimulated by ATP; cited from earlier work
[11] = system: NFκB and COX-2; details: cited from earlier work
[12] = system: hepatocellular carcinoma; details: 5 g oral per day, two female patients who survived 1 year; cited from earlier work
[13] = system: monocyte-macrophages; details: by conjugation of HNE; cited from earlier work
[14] = system: microglial cells; details: NO and superoxide generated via iNOS and NADPH-oxidase; cited from earlier work
[15] = system: HIV; details: 75 mg/kg in two equally divided doses
[16] = system: Concanavalin A stimulated proliferation of splenocytes; details: rats, dietary GSH supplementation; cited from earlier work
[17] = system: Mouse; details: cited from earlier work
[18] = cited from earlier work
[19] = human, in vivo, po, 15 mg/kg; cited from earlier work
[20] = human, in vivo, cited from earlier work
[21] = system: Mouse; details: pretreatment; cited from earlier work
[22] = i.v. GSH coadministration; cited from earlier work
[23] = system: glucose-induced insulin secretion; details: infusion 10 mg/min for 120 min, cited from earlier work
[24] = system: Peripheral Blood Mononuclear Cells (PBMC's)
Protocol: A total of 10,000 glutathione assays were performed.
The Phase I/II data, was based on approximately 10,000 glutathione assays of peripheral blood mononuclear cells (PBMC's) of HIV positive people given the drug regimen.
The study detailed in Appendix B administered the glutathione to HIV infected, otherwise healthy males between 18 and 65, with CD4+ cell counts above 500, not on any other medications.
24 HIV positive people received glutathione in a clinical trial. The first dose of one gram was taken at 0 time, or 10:00 a.m., and the second dose at 3 hours, or 1:00p.m. A baseline was measured two weeks earlier, on the same patient. A temporary intravenous catheter was in place for 7 hours to permit frequent blood sampling at the numerous time points.

[25] = 1,200 mg/day i.v.; cited from earlier work
[26] = system: cytotoxic T-lymphocytes; details: mouse, injection of GSH on the third day post immunization; cited from earlier work
[27] = system: human venous endothelial cells and rat aortic smooth muscle cells; details: cited from earlier work
[28] = cited from earlier work; remark: listed apart in the source
[29] = system: human immunodeficiency virus (HIV) expression; details: U1 cells; cited from earlier work
[30] = system: HIV; details: chronically infected cells, exogenous GSH; cited from earlier work
[31] = rat, plasma; cited from earlier work
[32] = system: mouse neuroblastoma cells; details: coadministration; cited from earlier work
[33] = system: murine macrophage J774 cells; details: exposure to the NO-releasing compound; cited from earlier work
[34] = system: HIV-1 LTR; details: Jurkat cells; cited from earlier work
[35] = system: NFκB; details: Jurkat cells, various concentrations; cited from earlier work
[36] = system: HUVEC and QG90 cell; details: pretreatment of HUVEC, IL-1 induced; cited from earlier work
[37] = system: Mouse; details: subcutaneous injection; cited from earlier work
[38] = system: P-selectin; details: human endothelial cells; cited from earlier work

O=[N+]([O-])c1ccc(SSc2ccc([N+](=O)[O-])cn2)nc1 [2,2′ dithiobis (5-nitropyridine)]
topoisomerase II-mediated DNA cleavage [1]: caused topoisomerase II-mediated DNA cleavage

CCCCS(=N)(=O)CCC(N)C(=O)O (centres unmarked) [BSO, buthionine sulfoximine]
HIV yield in the supernatant [2]: significantly increased

CCCCCC(/C=C/C=C\C/C=C\C/C=C\CCCC(=O)O)OO (centres unmarked) [Example 15-HPETE, 15-hydroperoxy eicosatetraenoic acid]
increase in sensitivity of 8E5 cells to killing [3]: 10 fold

N[C@@H](CCC(=O)N[C@@H](CS)C(=O)NCC(=O)O)C(=O)O [GSH, gamma-glutamyl-cysteinyl-glycine]
reproduction of herpes viruses [4]: inhibited or reduced | toxicity [5]: toxic | half-life [6]: 14.1-9.2 minutes | human IL-4 production [7]: decreased in a dose-dependent manner | growth of RPE cell cultures [8]: thrive | HIV-1 expression in peripheral blood mononuclear cells (PBMC) ([9]; in vitro): blocked or substantially reduced | cellular toxicity in monocyte/macrophages ([9]; in vitro): without producing detectable cellular toxicity | duration of suppression of HIV production ([9]; infected monocytes, intracellular glutathione raised to the high end of the normal range): about 35 days | HIV-1 p24 antigen levels and reverse transcriptase activity ([9]; single pulse exposure of HIV-1-infected monocyte/macrophages): sustained, concentration-dependent decrease | persistence of anti-HIV-1 effect in culture [9]: at least 35 days | persistence of anti-HIV-1 effect in culture ([9]; listed as glutathione): 35 days | V max [10]: approximately 0.5 n mol/min per mg of protein | activation of NFκB and COX-2 by H. pylori infection [11]: inhibited | tumor growth [12]: regression or stagnation of their tumor growth | macrophage death [13]: protected against macrophage death | peroxynitrite formation [14]: significantly decreased peroxynitrite formation | survival after starting on GSH ([15]; four far advanced AIDS patients who followed the regimen): 3 years | CD4+ cell counts ([15]; four patients): did not restore their CD4+ cell counts to any extent | age-associated decline of immune response [16]: reverse age-associated decline of immune response | LD50 ([17]; Intramuscular): 4000 mg/kg | LD50 ([17]; Intraperitoneal): 4020 mg/kg and 6815 mg/kg | LD50 ([17]; Intravenous): 2238 mg/kg | LD50 ([17]; Oral): 5000 mg/kg | LD50 ([17]; Subcutaneous): 5000 mg/kg | benefit ([18]; 3 grams daily for three months, 46 AIDS patients): no benefit was conclusively demonstrated | adverse effects ([18]; human, in vivo): No significant GSH-related adverse effects were reported | rise of plasma glutathione levels over the basal concentration [19]: 1.5-10 fold | volume of distribution of exogenous glutathione ([20]; iv): 176-107 MI/Kg | plasma concentration of total cyst(e)ine [20]: decreased | morphine-induced lethality [21]: protects against morphine-induced lethality | nephrotoxicity of cisplatin and/or cyclophosphamide combination therapy [22]: reduces associated nephrotoxicity | production of p24 gag protein and virus infectivity ([2]; exogenous GSH): strongly suppressed | insulin clearance and action [23]: No effect | glucose-induced insulin secretion ([23]; patients with IGT): significantly potentiated glucose-induced insulin secretion | intracellular glutathione insufficiency ([24]; PBMC's of HIV positive people): correction of the intracellular glutathione insufficiency was evident | dose dependence of PBMC glutathione ([24]; in vivo): dose response relationship | safety ([24]; in vivo): no evidence of toxicities | absorption and distribution within the PBMC completed ([24]; male, human, in vivo, po): 60 min | share absorbed and intracellular ([24]; male, human, in vivo, po): 80% | start of distribution into PBMC's / absorption after oral ingestion ([24]; male, human, in vivo, po): ≤ 0.5 h | hematologic parameters (hematocrit, hemoglobin, blood count) compared to baseline [25]: significantly increase studied hematologic parameters | augmentation of cytotoxic activity [26]: 5 fold | peroxynitrite induced suppression of mitochondrial respiration, nitrotyrosine formation, protein oxidation, DNA single strand breakage [27]: attenuated | systolic and diastolic blood pressure ([28]; 1,844 mg i.v. bolus, hypertensive patients and non-hypertensive diabetics): rapid and significant decrease in both systolic and diastolic blood pressure | blood pressure ([28]; 1,844 mg i.v. bolus, normal healthy subjects): no effect | return of blood pressure to baseline ([28]; 1,844 mg i.v. bolus): ≤ 30 min | blood pressure values ([28]; 3,699 mg dose, normal subjects): significant decrease in the blood pressure values in normal subjects | cytotoxic or cytostatic effects [29]: absence of cytotoxic or cytostatic effects | induction of HIV expression mediated by PMA, TNF-α, or IL-6 [29]: suppressed in a dose-dependent fashion | virus infectivity, budding and release of virus particles [30]: strongly suppresses | share of the remaining 30% as GSSG [31]: 9.5% | share of the remaining 30% as the mixed disulfide with cysteine [31]: 62.6% | deleterious effects of methylmercury [32]: largely prevented

CCN1C(=O)C=CC1=O [NEM, N-ethyl maleimide]
topoisomerase II-mediated DNA cleavage [1]: caused topoisomerase II-mediated DNA cleavage

CC(=O)N[C@H](C(=O)O)C(C)(C)SN=O [SNAP, S-nitroso-N-acetyl penicillamine]
viability of macrophages [33]: diminished

N/C(=N\O)c1cc(O)c(O)c(O)c1 [TD, Trimidox]
induction of HIV-1 LTR-mediated gene expression by TNF-α and Tat [34]: significantly suppressed | TNF-α-induced NFκB binding [35]: inhibited

CC(=O)Oc1ccccc1C(=O)O [aspirin]
cell-to-cell attachment of cancer cells to HUVEC [36]: efficiently blocked the cell-to-cell attachment in a dose-dependent manner

CN1CC[C@]23c4c5ccc(O)c4O[C@H]2C(=O)C=C[C@H]3[C@H]1C5 [morphinone]
toxicity relative to morphine [37]: 9 times

CC(=O)CCCCn1c(=O)c2c(ncn2C)n(C)c1=O [pentoxyphillin]
cell-to-cell attachment of cancer cells to HUVEC [36]: efficiently blocked the cell-to-cell attachment in a dose-dependent manner

O=C([O-])c1ccccc1O.[Na+] [sodium salicylate]
IL-4 induced expression of P-selectin [38]: inhibited

glutathione ester [GSE]
induction of HIV expression mediated by PMA, TNF-α, or IL-6 [29]: suppressed in a dose-dependent fashion
